# Experimental data: patent publication EP1131337B1 (DABUR PHARMA LTD., priority 1998, dated 2000)
# Experiments:
# lymphoma cells (U937) = assay: MTT cytotoxicity assay, lymphoma; assay type: cell-based, human; conditions: 72 hours
# Protocol: (§1) After 72 hours, the assay was terminated and percent cyotoxicities calculated.
# human leukemia (MOLT-4) = assay: MTT cytotoxicity assay, leukemia; assay type: cell-based; conditions: 72 hours
# Protocol: as §1
# [1] = system: prostate cancer cells (DU 145); assay: MTT cytotoxicity assay, prostate cancer; assay type: cell-based, human; conditions: 72 hours
# Protocol: as §1
# [2] = system: lung cancer cells (L 132); assay: MTT cytotoxicity assay, lung cancer; assay type: cell-based, human; conditions: 72 hours
# Protocol: as §1
# [3] = system: ovarian cancer cells (PA-1); assay: MTT cytotoxicity assay, ovarian cancer; assay type: cell-based, human; conditions: 72 hours
# Protocol: as §1
# [4] = system: colon cancer cells (HT29); assay: MTT cytotoxicity assay, colon cancer; assay type: cell-based, human; conditions: 72 hours
# Protocol: as §1
# [5] = system: laryngeal cancer cells(HeP.2); assay: MTT cytotoxicity assay, laryngeal cancer; assay type: cell-based, human; conditions: 72 hours
# Protocol: as §1
# [6] = system: P388 lymphocytic leukemia cells; conditions: Choi et al., Planta Medica 1988; cited from earlier work
# human melanomas = conditions: athymic mice carrying human melanomas; Nature Medicine 1995, WO 96/29068; cited from earlier work
structure (smiles),measurement,setting,value
CC(C)C1CCC2(C(=O)O)CCC3(C)C(CCC4C5(C)CCC(=NOCc6ccc([N+](=O)[O-])cc6)C(C)(C)C5CCC43C)C12 (stereo not shown) [compound 1098],ED50 Lymphoma 0 937,lymphoma cells (U937),0.4 µg/mL
same,ED50 Leukemia MOLT-4,human leukemia (MOLT-4),0.5 µg/mL
same,ED50 Prostate DU145,[1],1.5 µg/mL
same,ED50 Lung L132,[2],1.3 µg/mL
same,ED50 Ovary PA-1,[3],0.9 µg/mL
same,ED50 Colon HT-29,[4],2.6 µg/mL
same,ED50 Larynx Hep.2,[5],1.0 µg/mL
C=C(C)[C@@H]1CC[C@]2(C(=O)OC)CC[C@]3(C)[C@H](CC[C@@H]4[C@@]5(C)CC[C@H](O)C(C)(C)[C@@H]5CC[C@]43C)[C@@H]12 [betulinic acid methyl ester],ED50,[6],6.8 µg/mL
C=C(C)[C@@H]1CC[C@]2(C(=O)O)CC[C@]3(C)[C@H](CC[C@@H]4[C@@]5(C)CC[C@H](OC(C)=O)C(C)(C)[C@@H]5CC[C@]43C)[C@@H]12 [betulinic acid 3-monoacetate],ED50,[6],10.5 µg/mL
C=C(C)[C@@H]1CC[C@]2(C(=O)O)CC[C@]3(C)[C@H](CC[C@@H]4[C@@]5(C)CC[C@H](O)C(C)(C)[C@@H]5CC[C@]43C)[C@@H]12 [betulinic acid],toxicity,human melanomas,without toxicity
